Experimental data from PubChem BioAssay (NCI).
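A five-concentration, 48-hour dose response in 96-well plates underlies each endpoint, interpolated linearly between surrounding concentrations. At the TGI there is no net growth.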

Tests used:
Test in all cases: NCI-60 cell line screen, 48 h
[1] = tested on: HCT-15 colon
[2] = tested on: NCI-H522 lung
[3] = tested on: SF-295 CNS
[4] = tested on: U251 CNS
[5] = tested on: CCRF-CEM leukemia
[6] = tested on: HT29 colon
[7] = tested on: MCF7 breast
[8] = tested on: SK-MEL-5 melanoma
[9] = tested on: HCT-116 colon
[10] = tested on: SN12C renal

Compound | TGI [1] [µM] | TGI [2] [µM] | TGI [3] [µM] | TGI [4] [µM] | TGI [5] [µM] | TGI [6] [µM] | TGI [7] [µM] | TGI [8] [µM] | TGI [9] [µM] | TGI [10] [µM]
CC(C)=NN/C(=N\S(=O)(=O)c1ccc(Oc2cccc(Cl)c2C#N)cc1)Nc1ccc(Cl)cc1 | > 100 | > 100 | > 100 | > 100 | > 100 | > 100 | > 100 | > 100 | > 100 | > 100
COc1cccc(CCN2CCN(CCCc3ccccc3)CC2)c1 | > 100 | 67.9 | > 100 | > 100 | > 100 | > 100 | > 100 | 40.6 | > 100 | > 100
NCCCN(CCCN(C(=O)Nc1ccccc1)c1ccccc1)C(=O)Nc1ccccc1 | > 100 | 43.1 | 58.3 | > 100 | > 100 | > 100 | > 100 | 40.7 | > 100 | > 100
CSCCC(N)C(=O)NCCNc1ccc(NCCNC(=O)C(N)CCSC)c2c1C(=O)c1ccccc1C2=O (configuration not stated) | 16.3 | 1.3 | 10.7 | 2.44 | – | 3.21 | 4.77 | 13.2 | 2.16 | 2.55
NC(=O)c1cccc([N+](=O)[O-])c1 | > 100 | > 100 | > 100 | > 100 | > 100 | > 100 | – | > 100 | – | > 100
CCCCC(=O)c1c(O)nc2sccn2c1=O | > 10 | > 10 | > 10 | > 10 | > 10 | > 10 | > 10 | > 10 | > 10 | > 10
COc1cc2ccc(=O)oc2cc1O | > 625 | 618 | 79.7 | 455 | 328 | > 625 | 476 | 302 | > 625 | 282
CCCCOC(=O)C(NC(C(=O)OCCCC)c1cc(C(C)(C)C)c(O)c(C(C)(C)C)c1)c1cc(C(C)(C)C)c(O)c(C(C)(C)C)c1 (configuration not stated) | > 100 | > 100 | > 100 | > 100 | > 100 | > 100 | > 100 | > 100 | > 100 | > 100
ClCCCc1ccccc1C1=NCCc2ccccc21 | > 100 | > 100 | > 100 | > 100 | > 100 | > 100 | > 100 | 40.5 | > 100 | > 100
CC1(C)N/C(=C\C=O)C(C)(C)N1O | > 100 | – | > 100 | > 100 | > 100 | > 100 | > 100 | > 100 | > 100 | > 100
CO/N=C1\CC(NC(=O)CNC(=O)OC(C)(C)C)c2ccsc21 (configuration not stated) | > 100 | – | > 100 | > 100 | > 100 | > 100 | > 100 | > 100 | > 100 | > 100
COC(OC)[C@@H]1OC[C@H](n2cnc3c(N)ncnc32)[C@H]1O | > 100 | – | > 100 | > 100 | > 100 | > 100 | – | > 100 | > 100 | > 100
Cc1cc(-c2nc3cc(F)ccc3s2)ccc1NC(=O)[C@@H](N)CCCCN | 21 | 21 | 9.62 | 3.89 | – | 9.61 | 11.8 | 27.1 | 7.67 | 26
OC1(c2ccccc2)CCN(Cc2c[nH]c3ccccc23)CC1 | > 100 | > 100 | > 100 | > 100 | > 100 | > 100 | > 100 | > 100 | > 100 | > 100
Cc1ccc([S@](=O)c2occc2C=O)cc1 | 9.84 | 31.6 | 32.4 | 27.4 | 4.4 | 27.2 | 13.3 | 23.1 | 9.64 | 27.7
Cc1ccc(/C(O)=C/c2nc3ccccc3sc2=O)c(C)c1 | > 100 | 62.1 | > 100 | > 100 | > 100 | > 100 | > 100 | > 100 | > 100 | > 100
